Drawing on ChEMBL document CHEMBL1151553, “Two novel amino acid derivatives containing side-chain thioamides for the synthesis of photoactivatable peptides” (Bioorg Med Chem Lett, 1997), this text covers IC50 for two compounds.

A word on the IC50: it is the point on the concentration scale where inhibition reaches its midpoint. Read a high IC50 as a need for much substance.

Numbered stars: 1 amine (or outer) side, 2 acyl side, 3 side chain; on linkers, the order of the positions; unused ones are H or OH. Square brackets hold non-standard residues; d marks the D form. Peptide text beside a SMILES is read from it. X2 = O=C([C@@H](Cc1ccc(NC(=S)Cc2ccccc2)cc1)N[*:1])[*:2]; X1 = O=C([C@@H](Cc1ccc(NC(=S)c2ccccc2)cc1)N[*:1])[*:2]; hCys = N[C@@H](CCS)C(=O)O

This assay deals with T1, Substance-K receptor (Homo sapiens, UniProt P21452).
T1 sequence (P21452 whole entry): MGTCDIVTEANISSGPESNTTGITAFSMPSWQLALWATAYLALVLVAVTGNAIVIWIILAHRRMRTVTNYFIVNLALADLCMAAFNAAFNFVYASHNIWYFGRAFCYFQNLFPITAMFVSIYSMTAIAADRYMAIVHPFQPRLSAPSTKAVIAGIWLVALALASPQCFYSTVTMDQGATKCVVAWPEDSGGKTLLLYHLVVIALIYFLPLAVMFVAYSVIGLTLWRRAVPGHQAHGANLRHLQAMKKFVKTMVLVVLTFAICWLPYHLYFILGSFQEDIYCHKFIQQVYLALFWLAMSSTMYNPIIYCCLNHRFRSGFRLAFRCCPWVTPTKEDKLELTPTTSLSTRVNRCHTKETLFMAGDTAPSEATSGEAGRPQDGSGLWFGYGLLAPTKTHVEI
The assay is described as follows: Tested for the binding affinity to human NK2 receptor expressed in Sf-9 insect larval cells using 0.1 nM 2-[125 I] iodohistidyl neurokinin A. The assay is classed as functional.

Regarding `CC(C)C[C@H](NC(=O)CNC(=O)[C@@H](NC(=O)[C@H](Cc1ccccc1)NC(=O)[C@H](CO)NC(=O)[C@H](CC(=O)O)NC(=O)[C@@H](NC(=O)[C@H](CCCCN)NC(=O)[C@@H](Cc1ccc(NC(=S)c2ccccc2)cc1)NC(=O)[C@@H](N)Cc1c[nH]cn1)[C@@H](C)O)C(C)C)C(=O)N[C@@H](CCS)C(N)=O` (H-H[X1]KTDSFVGL[hCys]-NH2), the IC50 was determined as 7.72 nM.

Take `CC(C)C[C@H](NC(=O)CNC(=O)[C@@H](NC(=O)[C@H](Cc1ccccc1)NC(=O)[C@H](CO)NC(=O)[C@H](CC(=O)O)NC(=O)[C@@H](NC(=O)[C@H](CCCCN)NC(=O)[C@@H](Cc1ccc(NC(=S)Cc2ccccc2)cc1)NC(=O)[C@@H](N)Cc1ccc(O)cc1)[C@@H](C)O)C(C)C)C(=O)N[C@@H](CCS)C(N)=O` (H-Y[X2]KTDSFVGL[hCys]-NH2): the half-inhibitory concentration (IC50) came to 53.4 nM.
